Source: patent publication US20220289753A1, “SHP2 INHIBITORS” (IRBM S.P.A., priority 2019, published 2022)

These molecules were tested against T1, SHP-2 enzyme (Met1-Leu525) (Homo sapiens, UniProt Q06124) (assay: SHP2 inhibition enzymatic assay (DiFMUP substrate, IRS1 peptide activation)). Details: SHP2 wt; activated by 500 nM IRS1 peptide; 75 μM DiFMUP substrate.
T1 construct: synthetized by Origene, Met1-Leu525, cat #TP750155; purchased Origene TP750155
T1 sequence (Q06124 1-525): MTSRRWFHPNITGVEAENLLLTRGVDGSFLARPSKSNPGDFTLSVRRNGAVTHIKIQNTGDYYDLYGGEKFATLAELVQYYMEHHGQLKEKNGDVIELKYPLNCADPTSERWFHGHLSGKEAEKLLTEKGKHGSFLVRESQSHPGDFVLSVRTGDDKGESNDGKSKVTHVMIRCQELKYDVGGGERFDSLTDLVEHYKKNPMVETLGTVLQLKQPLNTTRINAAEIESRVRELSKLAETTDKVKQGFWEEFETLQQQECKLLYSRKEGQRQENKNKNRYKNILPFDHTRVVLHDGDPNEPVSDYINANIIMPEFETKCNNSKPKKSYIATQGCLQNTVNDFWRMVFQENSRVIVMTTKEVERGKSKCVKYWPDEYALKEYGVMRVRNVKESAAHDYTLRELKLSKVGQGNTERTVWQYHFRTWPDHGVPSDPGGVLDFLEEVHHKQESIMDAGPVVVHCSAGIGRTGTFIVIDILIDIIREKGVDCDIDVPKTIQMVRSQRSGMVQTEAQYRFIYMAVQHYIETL
Type: biochemical
Procedure: SHP2 Inhibition Enzymatic Assay
Assay volume of 20 μL/well was assembled in 384 well black polystyrene low-binding microplates (Greiner), using the following buffer: 60 mM HEPES pH 7.2, 75 mM NaCl, 75 mM KCl, 1 mM EDTA pH 8, 0.05% tween-20, 5 mM DTT. The SHP-2 enzyme (synthetized by Origene, Met1-Leu525, cat #TP750155) was used at a final concentration of 0.5 nM.
Briefly, DMSO serially diluted testing compounds were transferred to the bottom of the assay plate. SHP2 was then added together with the IRS1 peptide. 30 minutes post incubation, the DiFMUP substrate was added to the reaction and incubated 30 min at room temperature. […] The fluorescence was detected by a microplate reader (Envision, PerkinElmer) according to the DiFMUP excitation and emission wavelength. The lower the fluorescence the higher the SHP2 inhibition.
The percentage inhibition is fitted against the compound dilutions with a four-parameter logistic regression. The inflection point (i.e. the concentration at which half-maximal inhibition is achieved) is the IC50.

SMILES	IC50 [nM]
CC1(N)CCN(c2nc3nc(Sc4cccc(C#N)c4)cnc3[nH]2)CC1 [Example 26, 3-((2-(4-amino-4-methylpiperidin-1-yl)-1H-imidazo[4,5-b]pyrazin-5-yl)thio)benzonitrile]	500 to 3000
Cc1nc(-c2cccc(Sc3cnc4[nH]c(N5CCC(C)(N)CC5)nc4n3)c2)cs1 [Example 48, 4-methyl-1-(5-((3-(2-methylthiazol-4-yl)phenyl)thio)-1H-imidazo[4,5-b]pyrazin-2-yl)piperidin-4-amine]	500 to 3000
Cn1ncc2cc(Sc3cnc4nc(N5CCC(C)(N)CC5)[nH]c4n3)ccc21 [Example 6, 4-methyl-1-(6-((1-methyl-1H-indazol-5-yl)thio)-1H-imidazo[4,5-b]pyrazin-2-yl)piperidin-4-amine]	500 to 3000
CC1(N)CCN(c2nc3nc(Sc4ccc(C(=O)O)cc4Cl)cnc3[nH]2)CC1 [Example 99, 4-((2-(4-amino-4-methylpiperidin-1-yl)-1H-imidazo[4,5-b]pyrazin-5-yl)thio)-3-chlorobenzoic acid]	< 500
COc1ccc2nc(Sc3cnc4[nH]c(N5CCC(C)(N)CC5)nc4n3)ccc2c1 [Example 69, 1-(5-((6-methoxyquinolin-2-yl)thio)-1H-imidazo[4,5-b]pyrazin-2-yl)-4-methylpiperidin-4-amine]	500 to 3000
CC(C)c1ccccc1Sc1cnc2[nH]c(N3CCC(C)(N)CC3)nc2n1 [Example 115, 1-(5-((2-isopropylphenyl)thio)-1H-imidazo[4,5-b]pyrazin-2-yl)-4-methylpiperidin-4-amine]	500 to 3000
CC1(N)CCN(c2nc3nc(Nc4cccc(Cl)c4Cl)cnc3[nH]2)CC1 [Example 121, 2-(4-amino-4-methylpiperidin-1-yl)-N-(2,3-dichlorophenyl)-1H-imidazo[4,5-b]pyrazin-5-amine]	> 3000
CC1(N)CCN(c2nc3nc(Sc4ccccc4S(C)(=O)=O)cnc3[nH]2)CC1 [Example 117, 4-methyl-1-(5-((2-(methylsulfonyl)phenyl)thio)-1H-imidazo[4,5-b]pyrazin-2-yl)piperidin-4-amine]	> 3000
CC1(N)CCN(c2nc3ncc(Sc4ccc(-n5nc[nH]c5=O)cc4)nc3[nH]2)CC1 [Example 10, 2-(4-((2-(4-amino-4-methylpiperidin-1-yl)-1H-imidazo[4,5-b]pyrazin-6-yl)thio)phenyl)-2,4-dihydro-3H-1,2,4-triazol-3-one]	500 to 3000
Cc1cccc(Sc2cnc3[nH]c(N4CCC(C)(N)CC4)nc3n2)c1C [Example 39, 1-(5-((2,3-dimethylphenyl)thio)-1H-imidazo [4,5-b]pyrazin-2-yl)-4-methylpiperidin-4-amine]	< 500
Nc1nccc(Sc2cnc3[nH]c(N4CCC5(CC4)Cc4ccc(O)cc4[C@H]5N)nc3n2)c1Cl [Example 208, (S)-1-amino-1′-(5-((2-amino-3-chloropyridin-4-yl)thio)-1H-imidazo[4,5-b]pyrazin-2-yl)-1,3-dihydrospiro[indene-2,4′-piperidin]-6-ol]	< 500
CC1(N)CCN(c2nc3nc(Sc4cccc5c4C(=O)CC5)cnc3[nH]2)CC1 [Example 76, 7-((2-(4-amino-4-methylpiperidin-1-yl)-1H-imidazo[4,5-b]pyrazin-5-yl)thio)-2,3-dihydro-1H-inden-1-one]	500 to 3000
CC1(N)CCN(c2nc3ncc(Sc4csc5ccccc45)nc3[nH]2)CC1 [Example 30, 1-(6-(benzo[b]thiophen-3-ylthio)-1H-imidazo[4,5-b]pyrazin-2-yl)-4-methylpiperidin-4-amine]	> 3000
CC(C)=Cc1ccccc1Sc1cnc2[nH]c(N3CCC(C)(N)CC3)nc2n1 [Example 75, 4-methyl-1-(5-((2-(2-methylprop-1-en-1-yl)phenyl)thio)-1H-imidazo[4,5-b]pyrazin-2-yl)piperidin-4-amine]	> 3000
Cc1cc(Sc2cnc3[nH]c(N4CCC(C)(N)CC4)nc3n2)c2ccccc2n1 [Example 106, 4-methyl-1-(5-((2-methylquinolin-4-yl)thio)-1H-imidazo[4,5-b]pyrazin-2-yl)piperidin-4-amine]	> 3000
COc1ccccc1Sc1cnc2[nH]c(N3CCC(C)(N)CC3)nc2n1 [Example 24, 1-(5-((2-methoxyphenyl)thio)-1H-imidazo[4,5-b]pyrazin-2-yl)-4-methylpiperidin-4-amine]	< 500

Second part, the molecule after the results:

IC50 [nM]	SMILES
500 to 3000	FC(F)(F)c1ncccc1Sc1cnc2[nH]c(N3CC4(CCCNC4)C3)nc2n1 [Example 17, 2-(2,6-diazaspiro[3.5]nonan-2-yl)-5-((2-(trifluoromethyl)pyridin-3-yl)thio)-1H-imidazo[4,5-b]pyrazine]
< 500	CC1(N)CCN(c2nc3nc(Sc4ccc(F)cc4F)cnc3[nH]2)CC1 [Example 20, 1-(5-((2,4-difluorophenyl)thio)-1H-imidazo[4,5-b]pyrazin-2-yl)-4-methylpiperidin-4-amine]
500 to 3000	NC1CCCN(c2nc3nc(Sc4cccnc4C(F)(F)F)cnc3[nH]2)CC1 (stereo not shown) [Example 85, 1-(5-((2-(trifluoromethyl)pyridin-3-yl)thio)-1H-imidazo[4,5-b]pyrazin-2-yl)azepan-4-amine]
< 500	CC1(N)CCN(c2nc3nc(Sc4cccc5c4COC5)cnc3[nH]2)CC1 [Example 77, 1-(5-((1,3-dihydroisobenzofuran-4-yl)thio)-1H-imidazo[4,5-b]pyrazin-2-yl)-4-methylpiperidin-4-amine]
> 3000	FC(F)(F)c1ncccc1Sc1cnc2[nH]c(NCc3ccn[nH]3)nc2n1 [Example 32, N-((1H-pyrazol-5-yl)methyl)-5-((2-(trifluoromethyl)pyridin-3-yl)thio)-1H-imidazo[4,5-b]pyrazin-2-amine]
500 to 3000	Cn1c(N2CCC(C)(N)CC2)nc2ncc(Sc3cccnc3C(F)(F)F)nc21 [Example 4, 4-methyl-1-(1-methyl-6-((2-(trifluoromethyl)pyridin-3-yl)thio)-1H-imidazo[4,5-b]pyrazin-2-yl)piperidin-4-amine]
> 3000	CC(C)(CNc1nc2nc(Sc3cccnc3C(F)(F)F)cnc2[nH]1)N1CCOCC1 [Example 87, N-(2-methyl-2-morpholinopropyl)-5-((2-(trifluoromethyl)pyridin-3-yl)thio)-1H-imidazo[4,5-b]pyrazin-2-amine]
> 3000	NC1CN(c2nc3nc(Sc4cccnc4C(F)(F)F)cnc3[nH]2)C1 [Example 15, 1-(5-((2-(trifluoromethyl)pyridin-3-yl)thio)-1H-imidazo[4,5-b]pyrazin-2-yl)azetidin-3-amine]
500 to 3000	CC1(N)CCN(c2nc3nc(Sc4ccnc5c(C(F)(F)F)cccc45)cnc3[nH]2)CC1 [Example 97]
500 to 3000	FC(F)(F)c1ncccc1Sc1cnc2[nH]c(Nc3ccc4n[nH]cc4c3)nc2n1 [Example 50, N-(2H-indazol-5-yl)-5-((2-(trifluoromethyl)pyridin-3-yl)thio)-1H-imidazo[4,5-b]pyrazin-2-amine]
< 500	CC1(N)CCN(c2nc3nc(Sc4cccc5ccncc45)cnc3[nH]2)CC1 [Example 92, 1-(5-(isoquinolin-8-ylthio)-1H-imidazo[4,5-b]pyrazin-2-yl)-4-methylpiperidin-4-amine]
< 500	CC1(N)CCN(c2nc3nc(Sc4ccccc4Cl)cnc3[nH]2)CC1 [Example 98, 1-(5-((2-chlorophenyl)thio)-1H-imidazo[4,5-b]pyrazin-2-yl)-4-methylpiperidin-4-amine]
